Reference: patent US10925858B2, “S-nitrosoglutathione (GSNO) and GSNO reductase inhibitors for use in therapy” (MUSC FOUNDATION FOR RESEARCH DEVELOPMENT, priority 2017, dated 2021)

Experiments:
EAE mice = experiment: EAE (MOG35-55) clinical disease, GSNO vs FeTPPS; format: in vivo, C57BL/6J mice; details: GSNO 1 mg/kg/i.p./day or FeTPPS 30 mg/kg/i.p./day from disease onset (day 13)
Protocol: EAE was induced as described previously (Nath et al., 2009). Animal procedures were approved by the institutional animal care and use committee of MUSC (AR #1644). Briefly, female C57BL/6J mice of 8-12 weeks of age weighing 18-22 g (The Jackson Laboratory, Bar Harbor, Me., USA) were randomly divided into four groups: 1) EAE animals treated with vehicle (EAE; n=8), 2) EAE with GSNO (1 mg/kg body weight per day; i.p.) treatment (EAE+GSNO; n=12), 3) EAE with FeTPPS (30 mg/kg body weight per day; i.p.) treatment (EAE+FeTPPS; n=8), 4) control with vehicle (Ctrl; n=8). The group size was determined by power analysis based on our previous data (Nadi et al., 2009). Then, the mice were immunized subcutaneously in the flank regions with MOG35-55 peptide (MOG; 200 ug; Peptide International) emulsified (1:1) in 100 ul complete Freund's adjuvant (CFA) CHI day 0 and day 7. […] Clinical signs of EAE were scored in animal facility in a blinded fashion to experimenter between 2 and 4 pm daily by examiners blinded to experimental treatments using the following scale: 0=no clinical signs of disease; 1=limp tail or waddling gait with tail tonicity; 2=waddling gait with limp tail (ataxia); 2.5=ataxia with partial limb paralysis; 3=full paralysis of one limb; 3.5=full paralysis of one limb with partial paralysis of second limb; 4=full paralysis of two limbs; 4.5=moribund stage; 5=death. […]

BBB leakage = experiment: BBB disruption by Evans blue extravasation in CCI rat model of TBI; format: in vivo, Sprague Dawley rats; details: 24 hr after TBI; GSNO 0.05 mg/kg i.v. or FeTPPS 3 mg/kg i.v. right after impact
Description: All animals used in this study received humane care in compliance with the Medical University of South Carolina's (MUSC) guidance and the National Research Council's criteria for humane care. Animal procedures were approved by the institutional animal care and use committee of MUSC (AR #2703). For generation of CCI model of TBI, young adult male (˜3-4 months old) Sprague Dawley rats weighing between 260-300 g were randomly divided into four groups: 1) TBI animals treated with vehicle (TBI; n=13), 2) TBI with GSNO (0.05 mg/kg body weight/i.v.) treatment (TBI+GSNO; n=13), 3) TBI with FeTPPS (3 mg/kg body weight, i.v.) treatment (TBI+FeTPPS; n=13), 4) sham-operated treated with vehicle (Sham; n=13). The group size was determined by power analysis based on our previous data (Khan et al., 2016b; Khan et al., 2009). Ketamine (90 mg/kg body weight) and xylazine (10 mg/kg body weight) as surgical anesthesia were administered intraperitoneally. Analgesic buprenorphine was administered pre-emptively to alleviate pain following surgery. […]
BBB leakage was assessed as previously described from our laboratory (Khan et al., 2016b; Khan et al., 2009). […] The brain tissues were homogenized in 750 μl of N, N-dimethylformamide (DMF) and centrifuged at 10,000×g for 25 minutes, and EB content in supernatant was fluorimetrically analyzed (λex 620 nm, λem 680 nm).

3-nitrotyrosine = experiment: Nitrotyrosine levels in spinal cords of EAE mice, Western; format: in vivo, C57BL/6J mice; details: day 24 post-immunization; GSNO 1 mg/kg/day or FeTPPS 30 mg/kg/day i.p.
Protocol: Western immunoblot analysis was performed by standard method using 50 μg of cell lysates. Following the SDS-PAGE electrophoresis, proteins were transferred from the gel onto the Polyvinylidene fluoride membrane (GE Healthcare Life Sciences, Marlborough, Mass.). […]
EAE was induced as described previously (Nath et al., 2009). […] The group size was determined by power analysis based on our previous data (Nadi et al., 2009). […] Clinical signs of EAE were scored in animal facility in a blinded fashion to experimenter between 2 and 4 pm daily by examiners blinded to experimental treatments using the following scale: 0=no clinical signs of disease; 1=limp tail or waddling gait with tail tonicity; 2=waddling gait with limp tail (ataxia); 2.5=ataxia with partial limb paralysis; 3=full paralysis of one limb; 3.5=full paralysis of one limb with partial paralysis of second limb; 4=full paralysis of two limbs; 4.5=moribund stage; 5=death. […]

lymphocytes in blood = experiment: Total lymphocyte count in blood of normal mice (lymphopenic effect); format: in vivo, C57BL/6 mice; details: normal mice without EAE, 1 mg/kg/day for 19 days
Protocol: The bloods collected in EDTA blood collection tubes (BD Biosciences) were analyzed by an automated hematology analyzer for counting total lymphocytes. For counting of each subset of lymphocytes, 50 μl of blood was mixed with staining buffer (20 μl) containing fluorescence labelled antibodies and red-blood-cells were lysed with FACS lysing solution (BD Biosciences) prior to fluorescence flow-cytometric analysis. For staining of CD3+, CD4+, and CD8+ cells, allophycocvanin (APC)-labeled anti-mouse CD3 (eBioscience clone 17A2), Fluorescein isothiocyanate (FITC)-labeled anti-mouse CD4 (eBioscience clone RM4-5), APC-labeled anti-mouse CD8 (eBioscience clone 53-6.7) and appropriate isotype matched controls.

numbers of total lymphocytes, CD3+ T cells, CD4+ T cells and CD8+ cells in blood (lymphocytes in blood) | SMILES | efficacy against clinical disease of EAE (EAE mice) | TBI-induced increase in Evan's blue extravasation (BBB leakage) | EAE-induced nitrotyrosine levels in spinal cords (3-nitrotyrosine)
 | Cl.O=S(=O)([O-])c1ccc(-c2c3nc(c(-c4ccc(S(=O)(=O)O)cc4)c4ccc([nH]4)c(-c4ccc(S(=O)(=O)O)cc4)c4nc(c(-c5ccc(S(=O)(=O)O)cc5)c5ccc2[nH]5)C=C4)C=C3)cc1.[Fe] [FeTPPS, 5,10,15,20-Tetrakis(4-sulfonatophenyl)porphyrinato Iron (III), Cl, reference compound] | significant efficacy but to a lower degree than GSNO treatment | reduced | significantly decreased
did not affect | Cc1cc(C(N)=O)ccc1-n1c(CCC(=O)O)ccc1-c1ccc(-n2ccnc2)cc1 [N6022, reference compound] |  |  | 
no obvious effect | N[C@@H](CCC(=O)N[C@@H](CSN=O)C(=O)NCC(=O)O)C(=O)O [GSNO, S-nitrosoglutathione] | great efficacy | reduced | significantly decreased
